This assay has as its system S. aureus ATCC 6538. Kind of assay: Time-kill assay adapted from ASTM E2315-16, S. aureus. To be noted: S. aureus and E. coli, 30 seconds of contact. In kind it is cell-based. The procedure: Aqueous slurries were prepared whereby gratings from the bars made in the Samples of Table I were mixed with water to form a test solution containing 10% by weight of the initial bar component. In the second method, raw bar components, as depicted in the Samples in Table II, were mixed with water to form a test solution containing a total of 10% raw bar component to simulate an aqueous slurry of a bar composition. For each sample, aqueous slurries were mixed at 50° C. to simulate customary consumer washing conditions.
As to the microbes, E. coli ATCC 10536 and S. aureus ATCC 6538 were used in this study to represent Gram negative and Gram positive bacteria, respectively. The bacteria were stored at −80° C. Fresh isolates were cultured twice on Tryptic Soy Agar plates for 24 hours at 37° C. before each experiment.
Test solutions were prepared. In the first method and for the aqueous slurries made from the bar compositions described in Table I, a composition (typically containing up to 15% surfactant) was mixed with water to form a test solution containing 10% weight percent of the initial formulation. In the second method and for the raw ingredients combined in Table II, the same were mixed with water at levels that simulate a 10% dilution of the slurries. In each assessment, test solutions were heated and mixed at […]
The log reduction was calculated using the formula: […]

`CC(O)C(=O)O` (stereo not shown) [lactic acid, Lactic acid]: the “antimicrobial reduction / efficacy (in words)” value is given as “performed poorly against S. aureus”.

The record behind these values is patent US20260262635A1, “BAR COMPOSITION HAVING ENHANCED ANTIMICROBIAL ACTIVITY” (Conopco, Inc., d/b/a UNILEVER, priority 2021, published 2026).
